Read-outs that look alike come from different tables or passages of the source.
Legend:
[1] = target: T1, hTLR7 (Homo sapiens, UniProt Q9NYK1); experiment: TLR7 inhibition, R848-induced hTNFα in Daudi; type: cell-based
T1 construct: human B lymphoblasts (Daudi cells); endogenous in cells; host or cells: Daudi
Protocol: (§1) RAW 264.7 and differentiated THP-1 cells were seeded into 96-well plates at 2 × 10^4 cells per well, while Daudi cells were seeded at 5 × 10^4 cells per well. After stabilization for 30 min, cells were stimulated with specific TLR agonists for 4 or 24 h. Supernatants were diluted and transferred to precoated ELISA plates to measure TNF-α secretion using kits from Invitrogen. Optical absorbance was measured using a BioTek Synergy HTX multimode microplate reader, and data were interpolated using BioTek Gen5 software.
(§2) One-tailed paired Student’s t-tests were performed using Microsoft Excel (Microsoft). Semi-logarithmic conversions and nonregression curve analyses for calculating 50% lethal concentration (LC50) and 50% inhibitory concentration (IC50) values were conducted using GraphPad Prism 7.0 (GraphPad). The therapeutic index was calculated as […]. Animal experimental results are expressed as mean ± standard deviation and analyzed using SPSS v.20 (IBM SPSS Statistics). Homogeneity of variance was assessed using Levene’s test.
[…] Data are from at least three independent experiments (n = 3) and statistical differences between the induced case and other cases were analyzed and verified using a one-tailed Student’s t-test (*P < 0.05, **P < 0.01, ***P < 0.001).

[2] = target: T2, TLR7 (Mus musculus, UniProt P58681); experiment: TLR7 inhibition, TNF-α secretion (ELISA) in RAW 264.7; type: cell-based; conditions: for TLR7 TI value: therapeutic index, RAW 264.7
T2 construct: endogenous in cells; host or cells: RAW 264.7
T2 sequence (P58681 27-1050): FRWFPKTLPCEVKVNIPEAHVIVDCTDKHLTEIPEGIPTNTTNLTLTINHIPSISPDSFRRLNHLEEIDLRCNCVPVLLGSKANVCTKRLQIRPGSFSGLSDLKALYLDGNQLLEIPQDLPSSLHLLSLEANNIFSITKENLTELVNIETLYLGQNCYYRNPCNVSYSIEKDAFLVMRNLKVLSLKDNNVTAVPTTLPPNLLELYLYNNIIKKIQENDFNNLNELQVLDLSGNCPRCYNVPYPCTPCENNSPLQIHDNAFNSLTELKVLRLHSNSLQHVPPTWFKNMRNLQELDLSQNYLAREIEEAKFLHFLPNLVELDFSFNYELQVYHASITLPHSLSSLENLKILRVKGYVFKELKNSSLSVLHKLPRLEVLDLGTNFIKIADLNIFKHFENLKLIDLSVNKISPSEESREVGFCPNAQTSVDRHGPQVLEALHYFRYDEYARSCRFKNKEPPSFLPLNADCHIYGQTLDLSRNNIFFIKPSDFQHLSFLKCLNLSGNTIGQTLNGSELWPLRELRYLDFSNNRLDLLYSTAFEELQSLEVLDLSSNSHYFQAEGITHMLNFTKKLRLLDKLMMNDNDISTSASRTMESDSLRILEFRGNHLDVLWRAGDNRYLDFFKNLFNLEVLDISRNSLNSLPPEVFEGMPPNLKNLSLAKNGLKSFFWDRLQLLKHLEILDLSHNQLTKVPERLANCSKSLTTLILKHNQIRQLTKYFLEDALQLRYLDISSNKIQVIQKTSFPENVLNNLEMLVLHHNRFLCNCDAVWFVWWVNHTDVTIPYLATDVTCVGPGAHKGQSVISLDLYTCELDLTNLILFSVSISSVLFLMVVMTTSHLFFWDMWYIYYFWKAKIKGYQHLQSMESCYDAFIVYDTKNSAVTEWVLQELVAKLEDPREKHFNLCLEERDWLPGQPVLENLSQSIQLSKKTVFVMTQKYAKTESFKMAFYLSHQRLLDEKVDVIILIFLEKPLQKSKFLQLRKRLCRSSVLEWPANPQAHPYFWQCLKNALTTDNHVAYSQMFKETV
Protocol: as §1, §2
The cells were activated with agonistic ligands: […], TLR3 (poly I:C, 2 μg/ml, 24 h), TLR4 (LPS, 10 or 100 ng/ml, 4 h), TLR5 (FLA-ST, 500 ng/ml, 4 h), TLR7 (ORN06/LyoVec, 2 μg/ml, 24 h; and IMQ, 1 μg/ml, 4 h), TLR8 (TL8-506, 2 μg/ml, 24 h) and TLR9 (ODN2395, 1 μM, 4 h) at various concentrations in RAW 264.7 cells, human Daudi cells and THP-1 cells. Data are from at least three independent experiments (n = 3) and statistical differences between the induced case and other cases were analyzed and verified using a one-tailed Student’s t-test (*P < 0.05, **P < 0.01, ***P < 0.001).

T1 sequence (Q9NYK1 27-1049): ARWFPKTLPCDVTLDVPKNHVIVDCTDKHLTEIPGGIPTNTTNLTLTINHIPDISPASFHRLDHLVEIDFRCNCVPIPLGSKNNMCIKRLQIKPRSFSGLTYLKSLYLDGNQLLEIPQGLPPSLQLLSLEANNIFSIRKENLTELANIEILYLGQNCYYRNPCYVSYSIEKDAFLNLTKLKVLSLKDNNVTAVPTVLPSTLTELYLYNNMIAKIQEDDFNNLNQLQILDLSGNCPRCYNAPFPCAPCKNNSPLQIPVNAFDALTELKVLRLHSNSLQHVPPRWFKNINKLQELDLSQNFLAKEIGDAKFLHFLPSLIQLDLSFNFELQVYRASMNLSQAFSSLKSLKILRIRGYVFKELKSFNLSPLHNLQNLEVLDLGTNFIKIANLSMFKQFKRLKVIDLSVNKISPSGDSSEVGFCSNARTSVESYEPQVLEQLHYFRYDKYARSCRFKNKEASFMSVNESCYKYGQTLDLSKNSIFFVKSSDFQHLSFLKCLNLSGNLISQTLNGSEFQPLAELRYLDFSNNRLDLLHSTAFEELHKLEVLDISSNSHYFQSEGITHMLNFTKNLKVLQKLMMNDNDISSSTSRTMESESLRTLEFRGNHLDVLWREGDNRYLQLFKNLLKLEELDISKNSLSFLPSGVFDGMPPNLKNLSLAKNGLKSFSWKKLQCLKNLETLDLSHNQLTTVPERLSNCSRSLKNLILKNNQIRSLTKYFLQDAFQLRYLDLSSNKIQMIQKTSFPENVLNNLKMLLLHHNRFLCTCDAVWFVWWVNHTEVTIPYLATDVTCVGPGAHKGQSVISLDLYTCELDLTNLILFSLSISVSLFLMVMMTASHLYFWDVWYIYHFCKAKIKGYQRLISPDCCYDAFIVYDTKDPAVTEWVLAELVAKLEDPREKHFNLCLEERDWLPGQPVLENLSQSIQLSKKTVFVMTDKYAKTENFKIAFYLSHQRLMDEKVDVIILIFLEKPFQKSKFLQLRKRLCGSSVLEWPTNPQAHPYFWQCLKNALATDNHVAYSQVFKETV

SMILES | IC50 [1] | IC50 ([2]; RAW 264.7 cell line, read-out: TLR7 IC50 (mTNFα)) | TLR7 TI value [2] | IC50 [2]
COc1ccc2c3c(N)c4c(nc3n(CCCN(C)C)c2c1)CCCC4 [ETI60] | 668 nM | 680 nM | 75.65 | 
Cc1cc2c(N)c3c(nc2n1CCCN(C)C)CCCCCC3 [ETI41] | 947 nM |  | 106.63 | 630 nM

From article PMC12508057, “Discovery of ETI41 and ETI60: novel selective endosomal Toll-like receptor inhibitors for the treatment of autoimmune diseases” (Experimental & Molecular Medicine, 2025)
